{"source": "patent US9790210B2", "about": "“N-(monocyclic aryl),N'-pyrazolyl-urea, thiourea, guanidine and cyanoguanidine compounds as TrkA kinase inhibitors” (Array BioPharma Inc., priority 2012, dated 2017)", "note": "Structures can show the parent of a compound that is named as a salt."}
{"biological_target": "TrkA (Homo sapiens, UniProt P04629)", "sequence (P04629 440-796 limits assumed)": "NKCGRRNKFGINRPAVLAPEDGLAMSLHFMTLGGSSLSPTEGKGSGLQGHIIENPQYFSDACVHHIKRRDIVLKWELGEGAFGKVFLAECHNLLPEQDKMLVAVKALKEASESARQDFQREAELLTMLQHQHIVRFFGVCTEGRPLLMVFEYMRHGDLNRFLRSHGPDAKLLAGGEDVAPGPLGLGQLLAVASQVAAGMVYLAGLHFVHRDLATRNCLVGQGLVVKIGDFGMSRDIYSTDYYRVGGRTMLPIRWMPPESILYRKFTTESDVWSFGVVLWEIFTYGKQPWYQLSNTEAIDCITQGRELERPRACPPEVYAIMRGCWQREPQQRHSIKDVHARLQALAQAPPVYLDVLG", "assay": "TrkA LanthaScreen Eu Kinase Binding Assay", "design": "6HIS tagged cytoplasmic domain from Invitrogen, Catalog No. PV3144; purchased Invitrogen PV3144", "settings": "averaged IC50; TR-FRET binding assay; read-out: TrkA Enzyme IC50", "method": "TrkA binding activity was determined in a TrkA LanthaScreen™ Eu Kinase Binding Assay. 5 nM His-tagged recombinant human TrkA (6HIS tagged cytoplasmic domain from Invitrogen, Catalog No. PV3144) was incubated with 4 nM Alexa-Fluor® Tracer 236 (Invitrogen Cat. No. PV5592), 2 nM biotinylated anti-His (Invitrogen Cat. No. PV6090), and 2 nM europium-labeled Streptavidin (Invitrogen Cat. No. PV5899), in buffer (25 mM MOPS, pH 7.5, 5 mM MgCl2, 0.005% Triton X-100). Three fold serial dilutions of compounds of the invention in DMSO were added to a final percentage of 2% DMSO. After 60-minute incubation at 22° C., the reaction was measured using the EnVision mutlimode plate reader (PerkinElmer) via TR-FRET dual wavelength detection at […]. The percent of control was calculated using a ratiometric emission factor. The IC50 values were determined by fitting a four parameter model to the percent of control data.\nTable A provides averaged IC50 values for compounds of the invention when tested in the assay of Example A, where A represents an averaged IC50 value<100 nM; B represents an averaged IC50 value from 100 to 1,000 nM; and C represents an averaged IC50 value from 1,000 to 10,000 nM.", "units": {"IC50": "nM"}}
{"molecule": "COCCCc1cc(Cl)c(Cl)cc1NC(=O)Nc1c(C)c(OC[C@H]2CNCCO2)nn1-c1ccccc1", "note": "[Example 44, (R)-1-(4,5-dichloro-2-(3-methoxypropyl)phenyl)-3-(4-methyl-3-(morpholin-2-ylmethoxy)-1-phenyl-1H-pyrazol-5-yl)urea hydrochloride]", "IC50": "< 100"}
{"molecule": "COCCCc1cc(Cl)c(Cl)cc1NC(=O)Nc1c(C)c(C2CCN(C)CC2)nn1-c1ccccc1", "note": "[Example 18, 1-(4,5-dichloro-2-(3-methoxypropyl)phenyl)-3-(4-methyl-3-(1-methylpiperidin-4-yl)-1-phenyl-1H-pyrazol-5-yl)urea]", "IC50": "< 100"}
{"molecule": "COCCCc1cc(Cl)c(Cl)cc1NC(=O)Nc1c(C)c(OCCN2CCN(C)CC2)nn1-c1ccccc1", "note": "[Example 28, 1-(4,5-dichloro-2-(3-methoxypropyl)phenyl)-3-(4-methyl-3-(2-(4-methylpiperazin-1-yl)ethoxy)-1-phenyl-1H-pyrazol-5-yl)urea]", "IC50": "< 100"}
{"molecule": "COCCCc1cc(Cl)c(Cl)cc1NC(=O)Nc1c(C)c(OCCN2CCNCC2)nn1-c1ccccc1", "note": "[Example 39, 1-(4,5-dichloro-2-(3-methoxypropyl)phenyl)-3-(4-methyl-1-phenyl-3-(2-(piperazin-1-yl)ethoxy)-1H-pyrazol-5-yl)urea dihydrochloride]", "IC50": "< 100"}
{"molecule": "COCCCc1cc(Cl)c(Cl)cc1NC(=O)Nc1c(C)c(OC[C@@H]2CN(C)CCO2)nn1-c1ccccc1", "note": "[Example 31, (S)-1-(4,5-dichloro-2-(3-methoxypropyl)phenyl)-3-(4-methyl-3-((4-methylmorpholin-2-yl)methoxy)-1-phenyl-1H-pyrazol-5-yl)urea]", "IC50": "< 100"}
{"molecule": "COCCCc1cc(Cl)c(Cl)cc1NC(=O)Nc1c(C)c(OC2CCNCC2)nn1-c1ccccc1", "note": "[Example 42, 1-(4,5-dichloro-2-(3-methoxypropyl)phenyl)-3-(4-methyl-1-phenyl-3-(piperidin-4-yloxy)-1H-pyrazol-5-yl)urea hydrochloride]", "IC50": "< 100"}
{"molecule": "COCCCc1cc(F)c(C(F)(F)F)cc1NC(=O)Nc1c(C)c(OC)nn1-c1ccccc1", "note": "[Example 48, 1-(4-fluoro-2-(3-methoxypropyl)-5-(trifluoromethyl)phenyl)-3-(3-methoxy-4-methyl-1-phenyl-1H-pyrazol-5-yl)urea]", "IC50": "< 100"}
{"molecule": "COCC(F)(F)Cc1cc(Cl)c(Cl)cc1NC(=O)Nc1c(C)c(-c2ccc(=O)n(C)c2)nn1-c1ccccc1", "note": "[Example 20, 1-(4,5-dichloro-2-(2,2-difluoro-3-methoxypropyl)phenyl)-3-(4-methyl-3-(1-methyl-6-oxo-1,6-dihydropyridin-3-yl)-1-phenyl-1H-pyrazol-5-yl)urea]", "IC50": "< 100"}
{"molecule": "COCCCc1cc(Cl)c(Cl)cc1NC(=O)Nc1c(C)c(OCC2CN(C)C2)nn1-c1ccccc1", "note": "[Example 37, 1-(4,5-dichloro-2-(3-methoxypropyl)phenyl)-3-(4-methyl-3-((1-methylazetidin-3-yl)methoxy)-1-phenyl-1H-pyrazol-5-yl)urea]", "IC50": "< 100"}
{"molecule": "COCCOc1cc(Cl)c(F)cc1NC(=O)Nc1c(C)c(-c2cnn(C)c2)nn1-c1ccccc1", "note": "[Example 5, 1-(4-chloro-5-fluoro-2-(2-methoxyethoxy)phenyl)-3-(1′,4-dimethyl-1-phenyl-1H,1′H-[3,4′-bipyrazol]-5-yl)urea]", "IC50": "< 100"}
{"molecule": "COCCOc1cc(Cl)c(Cl)cc1NC(=O)Nc1c(C)c(-c2ccc(=O)n(C)c2)nn1-c1ccccc1", "note": "[Example 8, 1-(4,5-dichloro-2-(2-methoxyethoxy)phenyl)-3-(4-methyl-3-(1-methyl-6-oxo-1,6-dihydropyridin-3-yl)-1-phenyl-1H-pyrazol-5-yl)urea]", "IC50": "< 100"}
{"molecule": "COCCCc1cc(Cl)c(Cl)cc1NC(=O)Nc1c(C)c(C(=O)NC2CCN(C)CC2)nn1-c1ccccc1", "note": "[Example 33, 5-(3-(4,5-dichloro-2-(3-methoxypropyl)phenyl)ureido)-4-methyl-N-(1-methylpiperidin-4-yl)-1-phenyl-1H-pyrazole-3-carboxamide]", "IC50": "< 100"}
{"molecule": "COCCCc1cc(Cl)c(Cl)cc1NC(=O)Nc1c(C)c(OC2CCN(C)CC2)nn1-c1ccccc1", "note": "[Example 30, 1-(4,5-dichloro-2-(3-methoxypropyl)phenyl)-3-(4-methyl-3-((1-methylpiperidin-4-yl)oxy)-1-phenyl-1H-pyrazol-5-yl)urea]", "IC50": "< 100"}
{"molecule": "COCCCc1ccc(Cl)cc1NC(=O)Nc1c(C)c(-c2cnn(C)c2)nn1-c1ccccc1", "note": "[Example 9, 1-(5-chloro-2-(3-methoxypropyl)phenyl)-3-(1′,4-dimethyl-1-phenyl-1H,1′H-[3,4′-bipyrazol]-5-yl)urea]", "IC50": "< 100"}
{"molecule": "COCCCc1cc(F)c(C(F)(F)F)cc1NC(=O)Nc1c(C)c(OC[C@H](O)CO)nn1-c1ccccc1", "note": "[Example 22, (R)-1-(3-(2,3-dihydroxypropoxy)-4-methyl-1-phenyl-1H-pyrazol-5-yl)-3-(4-fluoro-2-(3-methoxypropyl)-5-(trifluoromethyl)phenyl)urea]", "IC50": "< 100"}
{"molecule": "CNC(=O)c1nn(-c2ccccc2)c(NC(=O)Nc2cc(Cl)c(Cl)cc2CC(F)(F)COC)c1C", "note": "[Example 27, 5-(3-(4,5-dichloro-2-(2,2-difluoro-3-methoxypropyl)phenyl)ureido)-N,4-dimethyl-1-phenyl-1H-pyrazole-3-carboxamide]", "IC50": "< 100"}
{"molecule": "COCCOc1ccc(C(F)(F)F)cc1NC(=O)Nc1c(C)c(-c2cnn(C)c2)nn1-c1ccccc1", "note": "[Example 2, 1-(1′,4-dimethyl-1-phenyl-1H,1′H-[3,4′-bipyrazol]-5-yl)-3-(2-(2-methoxyethoxy)-5-(trifluoromethyl)phenyl)urea]", "IC50": "< 100"}
{"molecule": "COCCCc1cc(Cl)c(Cl)cc1NC(=O)Nc1c(C)c(OCCC2CCNCC2)nn1-c1ccccc1", "note": "[Example 40, 1-(4,5-dichloro-2-(3-methoxypropyl)phenyl)-3-(4-methyl-1-phenyl-3-(2-(piperidin-4-yl)ethoxy)-1H-pyrazol-5-yl)urea hydrochloride]", "IC50": "< 100"}
{"molecule": "COCCOc1ncc(C(F)(F)F)cc1NC(=O)Nc1c(C)c(-c2cnn(C)c2)nn1-c1ccccc1", "note": "[Example 4, 1-(1′,4-dimethyl-1-phenyl-1H,1′H-[3,4′-bipyrazol]-5-yl)-3-(2-(2-methoxyethoxy)-5-(trifluoromethyl)pyridin-3-yl)urea]", "IC50": "100 to 1000"}
{"molecule": "COCCOc1cc(Cl)ccc1NC(=O)Nc1c(C)c(-c2cnn(C)c2)nn1-c1ccccc1", "note": "[Example 11, 1-(4-chloro-2-(2-methoxyethoxy)phenyl)-3-(1′,4-dimethyl-1-phenyl-1H,1′H-[3,4′-bipyrazol]-5-yl)urea]", "IC50": "100 to 1000"}
{"molecule": "COCCOc1nc(C(F)(F)F)ccc1NC(=O)Nc1c(C)c(-c2cnn(C)c2)nn1-c1ccccc1", "note": "[Example 7, 1-(1′,4-dimethyl-1-phenyl-1H,1′H-[3,4′-bipyrazol]-5-yl)-3-(2-(2-methoxyethoxy)-6-(trifluoromethyl)pyridin-3-yl)urea]", "IC50": "100 to 1000"}
{"molecule": "COCCOc1cc(C(F)(F)F)ccc1NC(=O)Nc1c(C)c(-c2cnn(C)c2)nn1-c1ccccc1", "note": "[Example 10, 1-(1′,4-dimethyl-1-phenyl-1H,1′H-[3,4′-bipyrazol]-5-yl)-3-(2-(2-methoxyethoxy)-4-(trifluoromethyl)phenyl)urea]", "IC50": "< 100"}
{"molecule": "COCCCc1cc(Cl)c(Cl)cc1NC(=O)Nc1c(C)c(OCC2(F)CCNCC2)nn1-c1ccccc1", "note": "[Example 45, 1-(4,5-dichloro-2-(3-methoxypropyl)phenyl)-3-(3-((4-fluoropiperidin-4-yl)methoxy)-4-methyl-1-phenyl-1H-pyrazol-5-yl)urea hydrochloride]", "IC50": "< 100"}
{"molecule": "COCCCc1cc(Cl)c(Cl)cc1NC(=O)Nc1c(C)c(-c2ccc(=O)n(C)c2)nn1-c1ccccc1", "note": "[Example 13, 1-(4,5-dichloro-2-(3-methoxypropyl)phenyl)-3-(4-methyl-3-(1-methyl-6-oxo-1,6-dihydropyridin-3-yl)-1-phenyl-1H-pyrazol-5-yl)urea]", "IC50": "< 100"}
{"molecule": "CNC(=O)c1nn(-c2ccccc2)c(NC(=O)Nc2cc(C(F)(F)F)c(F)cc2CCCOC)c1C", "note": "[Example 19, 5-(3-(4-fluoro-2-(3-methoxypropyl)-5-(trifluoromethyl)phenyl)ureido)-N,4-dimethyl-1-phenyl-1H-pyrazole-3-carboxamide]", "IC50": "< 100"}
{"molecule": "COCCCc1cc(F)c(C(F)(F)F)cc1NC(=O)Nc1c(C)c(-c2ccc(=O)n(C)c2)nn1-c1ccccc1", "note": "[Example 17, 1-(4-fluoro-2-(3-methoxypropyl)-5-(trifluoromethyl)phenyl)-3-(4-methyl-3-(1-methyl-6-oxo-1,6-dihydropyridin-3-yl)-1-phenyl-1H-pyrazol-5-yl)urea]", "IC50": "< 100"}
{"molecule": "COCCCc1cc(Cl)c(Cl)cc1NC(=O)Nc1c(C)c(OCCC2CCN(C)CC2)nn1-c1ccccc1", "note": "[Example 29, 1-(4,5-dichloro-2-(3-methoxypropyl)phenyl)-3-(4-methyl-3-(2-(1-methylpiperidin-4-yl)ethoxy)-1-phenyl-1H-pyrazol-5-yl)urea]", "IC50": "< 100"}
{"molecule": "COCCOc1nc(C)ccc1NC(=O)Nc1c(C)c(-c2cnn(C)c2)nn1-c1ccccc1", "note": "[Example 1, 1-(1′,4-dimethyl-1-phenyl-1H,1′H-[3,4′-bipyrazol]-5-yl)-3-(2-(2-methoxyethoxy)-6-methylpyridin-3-yl)urea]", "IC50": "1000 to 10000"}
